Values joined by “and” are separate entries in the source; they are usually repeats but may differ in a detail not shown here. Equal values may be shown once. Read-outs that look alike come from different tables or passages of the source.
What was measured:
[1] = system: rat dorsal root ganglion neurons (DRG); settings: for Score of neuroprotection, Extremity count / Score of neuroprotection, Total length: glucose-treated DRGs
Protocol: In vitro injury was induced in DRGs culture by glucose treatment (150 mM) for 48 hours. […] By using HCS technology, cell parameters associated with neurite outgrowth—an indication of pre-lethal cytotoxic effects—were measured at single cell level, which allows high-throughput screening.
(§1) Primary cultures of dorsal rat ganglion neurons were prepared from the dorsal ganglions of neonatal Sprague-Dawley rats at day 8. […] Cells were maintained in neurobasal medium supplemented with B-27 component for 8 days at 37° C. in a humidified 5% CO2 atmosphere.
Beta-Ill tubulin staining: Beta-Ill tubulin staining was determined by Immunohistochemistry (IHQ). Cells were washed with PBS (Sigma Aldrich # Cat.D8537) and fixed with methanol for 10 minutes. After the fixation step the samples were washed three times with PBS and permeabilized with PBS+0.3% triton for 10 minutes. The samples were then blocked with PBS+Bovine Serum Albumine (BSA) for 30 minutes and finally anti-beta tubulin Ill antibody (Abcam # Cat.ab7751) were added at 1/1000 in PBS+0.5% BSA for 60 minutes at room temperature. […] The samples were then washed three times and measured under automated fluorescent microscope. To investigate the role of neurite extension, two geometric patterns were mainly employed in this study: total neurite length (total length of the path from a neuron body), and number of extremities (number of terminating neurite segments per neuron).
In order to acquire enough cells for the analysis, nine fields per well were imaged. The 20× objective was used to collect images for the distinct fluorescence channels. Dyes were excited and their fluorescence was monitored at the excitation and emission wavelengths with appropriate filter settings. In the setting up of the procedure, exposure times were adjusted in order to avoid overlapping emission between different probes. The collected images were analyzed using a module that allows the simultaneous quantification of subcellular structures, which are stained by different molecular probes to measure the fluorescence intensity associated with predefined nuclear and cytoplasmic compartments.

[2] = system: rat dorsal root ganglion neurons (DRG); experiment: WST-8 assay of viable cells, glucose toxicity; settings: for Score of neuroprotection, WST8: glucose-treated DRGs
Protocol: as §1
2. WST-8 assay: For detection of viable cells, 10 μl of CCK-8 reagent (WST-8) were added to each well and the plate was incubated at 37° C. After 1 hour, absorbance was measured at 450 nm using the Synergy II microplate reader.

[3] = system: rat dorsal root ganglion neurons (DRG); experiment: Cell number by hoechst 33342 nucleic acid stain (HCS), glucose toxicity; settings: for Score of neuroprotection, HOECHST: glucose-treated DRGs
Source text: This dye allows a sensitive cell number determination by fluorescence microscopy.

glucose-treated DRGs = experiment: Degree of neuroprotection, sum of scores of all HCS parameters; settings: for Total score of neuroprotection (sum of individual scores): glucose-treated DRGs; for Neuroprotection degree: prior to assault with 150 mM glucose
Source text: For all the studied parameters, a variation of at least 20% in fluorescence intensity or in the corresponding morphological parameter in relation to untreated cultures was considered. […] From this calculation, a neuroprotective scale was established: high (>6), moderate (4-5), low (1-3), and no neuroprotection (0).
In order to compare the degree of neuroprotection of the tested compound at different concentrations, different scores were created according to the level of the alteration (the group formation criterion is described in material and methods section) and then a value was assigned to each parameter. The sum of all the values for each parameter and concentration tested was calculated, and four distinct groups were created according to their level of neuroprotection.

[4] = diluted with sodium chloride 0.9%; cited from earlier work
peripheral nerves = settings: injected into the spinal cord compartment of cerebral spinal fluid; cited from earlier work
eye = settings: higher concentrations, accidental use instead of Trypan Blue during cataract surgery; cited from earlier work
[5] = Sprague-Dawley, rat, 48 h, 150 mM
[6] = MB 0.0005 uM (with glu 150 mM, 48 h)
[7] = MB 0.0005 uM (with glu 150 mM, 48 h), listed as MB
[8] = MB 0.005 uM (with glu 150 mM, 48 h)
[9] = MB 0.005 uM (with glu 150 mM, 48 h), listed as MB
[10] = MB 0.05 uM (with glu 150 mM, 48 h)
[11] = MB 0.05 uM (with glu 150 mM, 48 h), listed as MB
[12] = MB 0.5 uM (with glu 150 mM, 48 h)
[13] = MB 0.5 uM (with glu 150 mM, 48 h), listed as MB
[14] = MB 5 uM (with glu 150 mM, 48 h)
[15] = MB 5 uM (with glu 150 mM, 48 h), listed as MB
[16] = MB 50 uM (with glu 150 mM, 48 h)
[17] = MB 50 uM (with glu 150 mM, 48 h), listed as MB

For O=C[C@H](O)[C@@H](O)[C@H](O)[C@H](O)CO [Glucose, glucose], the “Extremity count/neuron (single replicates)” value ([1]; Glucose (Alone) 150 mM, 48 h) was 0.82 and 0.9862 and 0.7818, the “Extremity count/neuron, Mean % of control” value ([1]; Glucose (Alone) 150 mM, 48 h) was 69.57 % of control and the “Extremity count/neuron, mean” value ([1]; Glucose (Alone) 150 mM, 48 h) was 0.8627. The “Total length per neuron (single replicates)” value ([1]; Glucose (Alone) 150 mM, 48 h) was 42.95 and 52.97 and 37.56, the “Total length per neuron, Mean % of control” value ([1]; Glucose (Alone) 150 mM, 48 h) was 62.89 % of control and the “Total length per neuron, mean” value ([1]; Glucose (Alone) 150 mM, 48 h) was 44.49. For the same molecule, the “decrease in neurite extremity count compared to untreated cells” value [1, 5] was 31%, the “decrease in neurite total length compared to untreated cells” value [1, 5] was 38% and the “viability reduction in DRGs measured by WST8” value ([2]; glucose 150 mM, 48 h) was 22%. For the same molecule, the “Cell viability by Hoechst (single replicates)” value ([3]; Glucose (Alone) 150 mM, 48 h) was 125 and 104 and 81, the “Cell viability by Hoechst, Mean % of control” value ([3]; Glucose (Alone) 150 mM, 48 h) was 46.76 % of control and the “Cell viability by Hoechst, mean” value ([3]; Glucose (Alone) 150 mM, 48 h) was 103.3. For the same molecule, the mortality in neurons [3, 5] was 54%.
For CN(C)c1ccc2nc3ccc(N(C)C)cc3[s+]c2c1 [methylene blue, 3,7-bis(dimethylamino) phenothiazin-5-ium chloride], the “Score of neuroprotection, Extremity count” value (“Score … Extremity count” below) ([1]; 0.0005 μM) was 0 (no neuroprotection or variation lower than 20%), the “Score of neuroprotection, Total length” value ([1]; 0.0005 μM) was 0 (no neuroprotection or variation lower than 20%) and the “Score … Extremity count” value ([1]; 0.005 μM) was 0 (no neuroprotection or variation lower than 20%). The “Score of neuroprotection, Total length” value ([1]; 0.005 μM) was 0 (no neuroprotection or variation lower than 20%), the “re-establishment of neurite outgrowth affected by glucose” value ([1]; 0.05 μM with 150 mM glucose) was “could re-establish the affected neurite outgrowth” and the “Score … Extremity count” value ([1]; 0.05 μM) was 1 (variation 20-40%). For the same molecule, the “Score of neuroprotection, Total length” value ([1]; 0.05 μM) was 1 (variation 20-40%), the “Score … Extremity count” value ([1]; 0.5 μM) was 0 (no neuroprotection or variation lower than 20%) and the “Score of neuroprotection, Total length” value ([1]; 0.5 μM) was 0 (no neuroprotection or variation lower than 20%). For the same molecule, the “Score … Extremity count” value ([1]; 5 μM) was −1 (variation 20-40%), the “Score of neuroprotection, Total length” value ([1]; 5 μM) was 0 (no neuroprotection or variation lower than 20%) and the “Score … Extremity count” value ([1]; 50 μM) was −3 (variation 40-60%). The “Score of neuroprotection, Total length” value ([1]; 50 μM) was −1 (variation 20-40%), the “Extremity count/neuron, Mean % of control” value [1, 6] was 77.9 % of control and the “Extremity count/neuron, mean” value [1, 6] was 0.966. For the same molecule, the “Total length per neuron, Mean % of control” value [1, 6] was 70.88 % of control, the “Total length per neuron, mean” value [1, 6] was 50.15 and the “Extremity count/neuron (single replicates)” value [1, 7] was 1.058 and 0.8613 and 0.9784. For the same molecule, the “Total length per neuron (single replicates)” value [1, 7] was 50.96 and 40.13 and 59.36, the “Extremity count/neuron, Mean % of control” value [1, 8] was 82.24 % of control and the “Extremity count/neuron, mean” value [1, 8] was 1.02. The “Total length per neuron, Mean % of control” value [1, 8] was 74.22 % of control, the “Total length per neuron, mean” value [1, 8] was 52.51 and the “Extremity count/neuron (single replicates)” value [1, 9] was 0.8645 and 1.19 and 1.005. The “Total length per neuron (single replicates)” value [1, 9] was 45.83 and 61.19 and 50.5, the “Extremity count/neuron, Mean % of control” value [1, 10] was 95.29 % of control and the “Extremity count/neuron, mean” value [1, 10] was 1.182. For the same molecule, the “Total length per neuron, Mean % of control” value [1, 10] was 86.27 % of control, the “Total length per neuron, mean” value [1, 10] was 61.03 and the “Extremity count/neuron (single replicates)” value [1, 11] was 1.345 and 1.059 and 1.141. The “Total length per neuron (single replicates)” value [1, 11] was 62.91 and 50.39 and 69.8, the “Extremity count/neuron, Mean % of control” value [1, 12] was 61.57 % of control and the “Extremity count/neuron, mean” value [1, 12] was 0.7634. For the same molecule, the “Total length per neuron, Mean % of control” value [1, 12] was 56.15 % of control, the “Total length per neuron, mean” value [1, 12] was 39.72 and the “Extremity count/neuron (single replicates)” value [1, 13] was 0.6567 and 0.8552 and 0.7784. The “Total length per neuron (single replicates)” value [1, 13] was 37.34 and 47.77 and 34.07, the “Extremity count/neuron, Mean % of control” value [1, 14] was 52.97 % of control and the “Extremity count/neuron, mean” value [1, 14] was 0.6568. For the same molecule, the “Total length per neuron, Mean % of control” value [1, 14] was 60.36 % of control, the “Total length per neuron, mean” value [1, 14] was 42.7 and the “Extremity count/neuron (single replicates)” value [1, 15] was 0.8559 and 0.5369 and 0.5777. The “Total length per neuron (single replicates)” value [1, 15] was 53.61 and 42.2 and 32.3, the “Extremity count/neuron, Mean % of control” value [1, 16] was 20.98 % of control and the “Extremity count/neuron, mean” value [1, 16] was 0.2601. For the same molecule, the “Total length per neuron, Mean % of control” value [1, 16] was 22.74 % of control, the “Total length per neuron, mean” value [1, 16] was 16.09 and the “Extremity count/neuron (single replicates)” value [1, 17] was 0.2833 and 0.2345 and 0.2625. For the same molecule, the “Total length per neuron (single replicates)” value [1, 17] was 18.18 and 12.64 and 17.45, the “Total score of neuroprotection (sum of individual scores)” value (from here on “Total score of neuroprotection”) (glucose-treated DRGs; 0.0005 μM) was 3 and the Neuroprotection degree (glucose-treated DRGs; 0.0005 μM) was “low (low (1-3))”. For the same molecule, the “Total score of neuroprotection” value (glucose-treated DRGs; 0.005 μM) was 3, the Neuroprotection degree (glucose-treated DRGs; 0.005 μM) was “low (low (1-3))” and the “Total score of neuroprotection” value (glucose-treated DRGs; 0.05 μM) was 5. For the same molecule, the Neuroprotection degree (glucose-treated DRGs; 0.05 μM) was “moderate (moderate (4-5))”, the “Total score of neuroprotection” value (glucose-treated DRGs; 0.5 μM) was 3 and the Neuroprotection degree (glucose-treated DRGs; 0.5 μM) was “low (low (1-3))”. The “Total score of neuroprotection” value (glucose-treated DRGs; 5 μM) was 0, the Neuroprotection degree (glucose-treated DRGs; 5 μM) was “no (no neuroprotection (0))” and the “Total score of neuroprotection” value (glucose-treated DRGs; 50 μM) was −6. The “neuroprotection against glucose-induced DRGs toxicity, all parameters” value (glucose-treated DRGs; concentrations from 0.0005 μM to 0.5 μM) was “some neuroprotection”, the compatibility with saline [4] was “precipitation has been reported” and the “nerve toxicity after injection into cerebral spinal fluid” value (peripheral nerves) was “massive peripheral nerves damage and resultant total paraplegia”. The ocular toxicity (eye) was “irreversible blindness, corneal edema”, the “Score of neuroprotection, WST8” value ([2]; 0.0005 μM) was 0 (no neuroprotection or variation lower than 20%) and the “Score of neuroprotection, WST8” value ([2]; 0.005 μM) was 0 (no neuroprotection or variation lower than 20%). The “Score of neuroprotection, WST8” value ([2]; 0.05 μM) was 0 (no neuroprotection or variation lower than 20%), the “Score of neuroprotection, WST8” value ([2]; 0.5 μM) was 0 (no neuroprotection or variation lower than 20%) and the “Score of neuroprotection, WST8” value ([2]; 5 μM) was 0 (no neuroprotection or variation lower than 20%). For the same molecule, the “viability (WST8) in addition to glucose” value ([2]; 50 μM with 150 mM glucose) was “decrease in viability”, the “Score of neuroprotection, WST8” value ([2]; 50 μM) was −1 (variation 20-40%) and the “prevention of glucose induced viability decrease (WST8)” value ([2]; 0.0005-50 μM with 150 mM glucose) was “could not prevent glucose induced viability decrease”. The “Score of neuroprotection, HOECHST” value ([3]; 0.0005 μM) was 3 (variation 60-100%), the “Score of neuroprotection, HOECHST” value ([3]; 0.005 μM) was 3 (variation 60-100%) and the “Score of neuroprotection, HOECHST” value ([3]; 0.05 μM) was 3 (variation 60-100%). For the same molecule, the “Score of neuroprotection, HOECHST” value ([3]; 0.5 μM) was 3 (variation 60-100%), the “Score of neuroprotection, HOECHST” value ([3]; 5 μM) was 1 (variation 20-40%) and the “Score of neuroprotection, HOECHST” value ([3]; 50 μM) was −1 (variation 20-40%). The “Cell viability by Hoechst, Mean % of control” value [3, 6] was 100.3 % of control, the “Cell viability by Hoechst, mean” value [3, 6] was 221.7 and the “Cell viability by Hoechst (single replicates)” value [3, 7] was 187 and 236 and 242. The “Cell viability by Hoechst, Mean % of control” value [3, 8] was 115.1 % of control, the “Cell viability by Hoechst, mean” value [3, 8] was 254.3 and the “Cell viability by Hoechst (single replicates)” value [3, 9] was 255 and 290 and 218. The “Cell viability by Hoechst, Mean % of control” value [3, 10] was 115.2 % of control, the “Cell viability by Hoechst, mean” value [3, 10] was 254.7 and the “Cell viability by Hoechst (single replicates)” value [3, 11] was 270 and 253 and 241. For the same molecule, the “Cell viability by Hoechst, Mean % of control” value [3, 12] was 109.2 % of control, the “Cell viability by Hoechst, mean” value [3, 12] was 241.3 and the “Cell viability by Hoechst (single replicates)” value [3, 13] was 234 and 217 and 273. The “Cell viability by Hoechst, Mean % of control” value [3, 14] was 64.56 % of control, the “Cell viability by Hoechst, mean” value [3, 14] was 142.7 and the “Cell viability by Hoechst (single replicates)” value [3, 15] was 168 and 103 and 157. For the same molecule, the “Cell viability by Hoechst, Mean % of control” value [3, 16] was 30.92 % of control, the “Cell viability by Hoechst, mean” value [3, 16] was 68.33 and the “Cell viability by Hoechst (single replicates)” value [3, 17] was 74 and 69 and 62. For the same molecule, the “prevention of glucose-induced mortality” value ([3]; all concentrations (0.0005-5 μM), dose dependent, except 50 μM, co-incubation with 150 mM glucose) was “could prevent glucose-induced mortality”.

From patent publication US20220387440A1, “FORMULATIONS FOR USE IN THE PREVENTION AND/OR TREATMENT OF PERIPHERAL NEUROPATHY AND ITS ASSOCIATED DISEASES” (priority 2019, published 2022)
